The values that follow come from US4317821A, “Maytansinoids, their use and pharmaceutical compositions thereof” (Takeda Chemical Industries, Ltd., priority 1979, dated 1982).

The subject of assay [1] is melanoma B-16 tumor cells. In words: Antitumor activity: life span prolongation in mice intraperitoneally transplanted with melanoma B-16 (NCI-protocol 1,300). The class given is in vivo. As to conditions: intraperitoneally once daily for 9 consecutive days. As to the method:
Therapeutic tests were carried out in mice according to NCI-protocol 1,300, Cancer Chemother, Reports, Part 3, 1972, Vol. 3, No. 2, in which melanoma B-16 tumor cells had been intraperitoneally transplanted, compound (I) being administered intraperitoneally once daily for 9 consecutive days.

Another assay deals with Tetrahymena pyriformis W. In words: Antiprotozoal activity: growth inhibition by serial dilution method. As to conditions: 28° C., 44 to 48 hours, pH 7.0 medium. The class given is cell-based. As to the method:
Antiprotozoal activity of compound (I) was assayed with Tetrahymena pyriformis W as the test organism and a medium composed of 20 g tryptose-peptone (Difco Co.), 1 g yeast extract, 2 g glucose, 1000 ml distilled water, 10 ml 1 M phosphate buffer (pH 7.0) as the assay medium. The microorganism was incubated at 28° C. for 44 to 48 hours and the growth inhibitory activity of compound (I) was assayed by the serial dilution method.

Values after ≈ are worked out from the molar mass of the structure shown.

Take `COc1cc2cc(c1Cl)N(C)C(=O)CC(OC(=O)C(O)c1ccccc1)C1(C)OC1C(C)C1CC(O)(NC(=O)O1)C(OC)C=CC=C(C)C2` (single isomer, unassigned) [maytansinol 3-α-hydroxyphenylacetate]: the “Antitumor activities B-16 (T/C %)” value in assay [1] (dose 100 μg/kg) turned out to be 178%; in assay [1] (dose 200 μg/kg), 208%; in assay [1] (dose 400 μg/kg) it was 247%; in assay [1] (dose 800 μg/kg), 217%.
Take `COc1cc2cc(c1Cl)N(C)C(=O)CC(OC(=O)C(OC(C)=O)c1ccccc1)C1(C)OC1C(C)C1CC(O)(NC(=O)O1)C(OC)C=CC=C(C)C2` (stereo not drawn) [Maytansinol 3-α-acetoxyphenylacetate, maytansinol 3-(α-acetoxyphenyl)acetate]: in the assay with Tetrahymena pyriformis W, the MIC was less than 2 µg/mL. Moreover, the “Antitumor activities B-16 (T/C %)” value in assay [1] (dose 3.125 μg/kg) was 181%; in assay [1] (dose 6.25 μg/kg), 260%; in assay [1] (dose 12.5 μg/kg), 161%.
For the compound `COc1cc2cc(c1Cl)N(C)C(=O)CC(OC(=O)C(COC(C)=O)c1ccccc1)C1(C)OC1C(C)C1CC(O)(NC(=O)O1)C(OC)C=CC=C(C)C2` (stereo not drawn) [maytansinol 3-α-acetoxymethylphenylacetate], in the assay with Tetrahymena pyriformis W, the minimum inhibitory concentration (MIC) lay within 1 to 2 µg/mL (≈ 1.32 to 2.65 µM).

The term MIC denotes the smallest concentration in the dilution series that meets the test's criterion for growth inhibition. A lower MIC goes with greater potency.
